From ChEMBL document CHEMBL1126573, “Non-peptide angiotensin II receptor antagonists. 1. Design, synthesis, and biological activity of N-substituted indoles and dihydroindoles” (J Med Chem, 1993)
pIC50: −log10 of the molar value.

Experiments:
[1] = biological target: T1, Type-1 angiotensin II receptor (Oryctolagus cuniculus, UniProt P34976); assay: In vitro antagonist activity against angiotensin II receptor type 1 in rabbit aorta using [125I]-Sar, Ile AII.; assay type: functional, tissue-based
T1 sequence (P34976 whole entry): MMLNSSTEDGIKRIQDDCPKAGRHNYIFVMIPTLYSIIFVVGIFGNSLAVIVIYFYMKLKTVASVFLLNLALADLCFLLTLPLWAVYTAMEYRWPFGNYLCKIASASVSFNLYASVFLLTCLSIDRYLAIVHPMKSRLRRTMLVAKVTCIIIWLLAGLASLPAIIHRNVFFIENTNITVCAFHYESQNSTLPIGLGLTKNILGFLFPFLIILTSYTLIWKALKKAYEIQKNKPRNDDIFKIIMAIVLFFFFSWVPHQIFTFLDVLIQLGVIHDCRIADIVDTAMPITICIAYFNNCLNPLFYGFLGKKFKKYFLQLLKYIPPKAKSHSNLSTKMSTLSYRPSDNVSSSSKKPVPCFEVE

[2] = biological target: T2, Type-2 angiotensin II receptor (Rattus norvegicus, UniProt P35351); assay: In vitro antagonist activity against angiotensin II receptor type 2 in rat midbrain using [125I]-Sar,Ile AII.; assay type: functional
T2 sequence (P35351 whole entry): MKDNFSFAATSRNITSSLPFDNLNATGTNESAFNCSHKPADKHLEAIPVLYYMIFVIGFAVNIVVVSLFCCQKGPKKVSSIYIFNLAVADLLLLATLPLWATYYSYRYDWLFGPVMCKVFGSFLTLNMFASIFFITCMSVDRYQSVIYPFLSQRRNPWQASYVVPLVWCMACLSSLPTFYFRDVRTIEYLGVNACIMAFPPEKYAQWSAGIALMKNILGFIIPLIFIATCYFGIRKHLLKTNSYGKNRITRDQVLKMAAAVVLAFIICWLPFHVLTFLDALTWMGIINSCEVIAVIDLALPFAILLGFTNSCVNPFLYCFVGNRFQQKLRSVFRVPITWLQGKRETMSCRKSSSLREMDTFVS

Compound | pIC50 [1] | pIC50 [2]
CCc1nc2c(C)cc(C)nc2n1Cc1ccc2c(ccn2Cc2cccc([N+](=O)[O-])c2C(=O)O)c1 | 6.80 | 4.85
CCc1nc2c(C)cc(C)nc2n1Cc1ccc2c(c1)CCN2C(=O)c1ccccc1-c1nnn[nH]1 | 6.11 | < 5.00
CCc1nc2c(C)cc(C)nc2n1Cc1ccc2c(c1)CCN2C(=O)c1ccccc1C(=O)O | 7.32 | 5.00
CCc1nc2c(C)cc(C)nc2n1Cc1ccc2c(c1)CCN2C(=O)c1cc(Cl)c(Cl)cc1C(=O)O | 6.77 | 6.00
CCc1nc2c(C)cc(C)nc2n1Cc1ccc2c(c1)CCN2C(C(=O)OC)c1ccccc1 (stereo unspecified) | 6.77 | 4.80
CCc1nc2c(C)cc(C)nc2n1Cc1ccc2c(c1)CCN2C(=O)c1ccccc1C#N | 6.17 | 4.60
CCc1nc2c(C)cc(C)nc2n1Cc1ccc2c(ccn2Cc2ccccc2-c2nn[nH]n2)c1 | 8.06 | < 4.74
CCc1nc2c(C)cc(C)nc2n1Cc1ccc2c(ccn2C(=O)c2ccccc2C#N)c1 | 6.60 | < 4.30
CCc1nc2c(C)cc(C)nc2n1Cc1ccc2c(c1)CCN2C(=O)c1c(Cl)ccc(Cl)c1C(=O)O | 7.74 | 5.19
CCc1nc2c(C)cc(C)nc2n1Cc1ccc2c(ccn2Cc2ccccc2NC(=O)OC)c1 |  | < 4.52
CCc1nc2c(C)cc(C)nc2n1Cc1ccc2c(ccn2C(=O)c2c(Cl)ccc(Cl)c2C(=O)O)c1 | 9.10 | 5.57
CCc1nc2c(C)cc(C)nc2n1Cc1ccc2c(ccn2C(=O)c2ccccc2)c1 | 6.62 | 5.05
CCc1nc2c(C)cc(C)nc2n1Cc1ccc2c(c1)CCN2C(c1ccccc1)c1nnn[nH]1 (stereo unspecified) |  | < 4.52
CCc1nc2c(C)cc(C)nc2n1Cc1ccc(-c2ccccc2-c2nnn[nH]2)cc1 [L-158809] |  | < 5.00

The remaining lines, values ahead:

pIC50 [1] | pIC50 [2] | Compound
8.30 | 6.89 | CCc1nc2c(C)cc(C)nc2n1Cc1ccc2c(ccn2C(=O)c2ccccc2-c2nnn[nH]2)c1
7.70 | 5.18 | CCc1nc2c(C)cc(C)nc2n1Cc1ccc2c(ccn2C(=O)c2ccccc2C(=O)O)c1
5.80 | 4.98 | CCc1nc2c(C)cc(C)nc2n1Cc1ccc2c(c1)CCN2C(C#N)c1cccc(C)c1 (stereo unspecified)
5.96 | 4.89 | CCc1nc2c(C)cc(C)nc2n1Cc1ccc2c(c1)CCN2C(C#N)c1ccccc1C (stereo unspecified)
7.04 | 4.77 | CCc1nc2c(C)cc(C)nc2n1Cc1ccc2c(ccn2C(=O)c2ccccc2NC(=O)O)c1
9.00 | 4.92 | CCc1nc2c(C)cc(C)nc2n1Cc1ccc2c(ccn2Cc2c(Cl)cccc2-c2nnn[nH]2)c1
6.46 | 4.94 | CCc1nc2c(C)cc(C)nc2n1Cc1ccc2c(c1)CCN2C(C#N)c1ccccc1 (stereo unspecified)
7.82 | 5.72 | CCc1nc2c(C)cc(C)nc2n1Cc1ccc2c(ccn2C(=O)c2cc(Cl)c(Cl)cc2C(=O)O)c1
6.49 | < 4.52 | CCc1nc2c(C)cc(C)nc2n1Cc1ccc2c(ccn2Cc2ccccc2C#N)c1
 | < 4.52 | CCc1nc2c(C)cc(C)nc2n1Cc1ccc2c(ccn2Cc2ccccc2C(=O)O)c1
6.92 | < 4.52 | CCc1nc2c(C)cc(C)nc2n1Cc1ccc2c(ccn2Cc2c(Cl)cccc2C#N)c1
 | 4.85 | CCc1nc2c(C)cc(C)nc2n1Cc1ccc2c(c1)CCN2C(C#N)c1ccc(C)cc1 (stereo unspecified)
6.21 | 4.68 | CCc1nc2c(C)cc(C)nc2n1Cc1ccc2c(ccn2Cc2ccccc2C(=O)OC)c1
7.09 | 4.85 | CCc1nc2c(C)cc(C)nc2n1Cc1ccc2c(c1)CCN2C(C(=O)O)c1ccccc1 (stereo unspecified)
